Read-outs that look alike come from different tables or passages of the source. Marks after values point to notes of the source that are not given here.
Assays:
[1] = test system: healthy Chinese volunteers; assay: Multiple-dose trial, safety and tolerability (adverse events); format: in vivo, human
Description: Multiple-dose pharmacokinetics: The multiple-dose trial could be carried out on the condition that a single-dose of CK (25–800 mg) was safe and well tolerated in healthy Chinese volunteers. After breakfast, one of three doses (100, 200, or 400 mg) of CK or placebo were given to 36 eligible subjects randomized to each dose (male:female = 1:1), in which 10 were on active treatment and 2 were on matching placebo. CK were administered as a single dose on day 1 and then as repeated doses for 9 consecutive days (days 7–15 of the trial), and the drug was administered once-daily in the morning after meals.
Safety was evaluated by continuous observation of adverse events (AEs), monitoring of vital signs, ECG, hematology, biochemistry, and urinalysis at baseline, during the trials at the set time points following drug administration, and at follow-up visits after study completion. AEs were classified by their intensity into mild, moderate and severe. Additionally, the AEs were also classified according their relationship to the test drug as positive, probable, possible, remote, or unrelated. The severity of the AEs, as well as their relationship to test drug, was assessed by a qualified physician in the unit. Clinically relevant changes in vital signs, ECG and laboratory parameters were defined as marked abnormalities. ECG were recorded in the semisupine position after a rest of at least 5 min. It is worth noting that all the information, including symptoms and signs after dosing or the medications that the subjects were concomitantly taking must be recorded on the case-report form by investigators. All available data from subjects who received the test drug and placebo were included in the summaries of the safety data and were descriptively analyzed. In addition, the differences between laboratory parameters at baseline and after drug treatment were analyzed to determine whether there were clinical significances.
All the safety data, including vital signs, laboratory indexes and ECG, were descriptively analyzed, and the statistical analyses were conducted to evaluate the effects of the test drug by comparing the differences between before and after drug treatment, between the test drug group and the placebo group and among the different dose groups.

CYP2C9 = test system: CYP2C9; design: method as in Xiao et al., 2016; settings: human liver microsomes, human recombinant CYPs; ref Xiao et al., 2016; cited from earlier work
[2] = Phase 0 cross-over trial, sex differences in pharmacokinetics; format: in vivo, human; settings: phase 0 trial; for half-life / Tmax: human, plasma, oral; for Tmax: read-out: Tmax, median (range); for Cmax/D, dose-normalized Cmax: in ng·ml⁻¹·mg⁻¹
Description: Cmax/D, dose-normalized Cmax value; Tmax, time to maximum plasma concentration; t1/2, terminal half-life; AUClast/D, dose-normalized AUClast value; AUCinf/D, dose-normalized AUCinf value; All values are presented as mean ± SD, except for Tmax, which is expressed as median (range). SD, standard deviation. PK parameters were compared between male and female by independent-sample t-test. A non-parametric test was performed on the Tmax and t1/2. * Compared with Male, p < 0.05. These were the results of phase 0 trial, which was a cross-over clinical trial and included 12 males and 12 females.

What does the source list for `CC(C)=CCC[C@](C)(OC1O[C@H](CO)[C@@H](O)[C@H](O)[C@H]1O)[C@H]1CC[C@]2(C)[C@@H]1[C@H](O)C[C@@H]1[C@@]3(C)CC[C@H](O)C(C)(C)[C@@H]3CC[C@]12C` (stereo partly drawn) [CK, 20-O-beta-D-glucopyranosyl-20(S)-protopanaxadiol]?
AEs positively relevant to CK [1]: 20 cases; AEs possibly related to CK [1]: 14 cases; AEs probably related to CK [1]: 23 cases; Alkaline phosphatase increased (study drug-related AE) ([1]; 100 mg (n = 10)): 0 number of subjects (%); Any AEs (study drug-related) ([1]; 100 mg (n = 10)): 7 (19.4) number of subjects (%); Bellyache (study drug-related AE) ([1]; 100 mg (n = 10)): 0 number of subjects (%); Blood white cells increased (study drug-related AE) ([1]; 100 mg (n = 10)): 0 number of subjects (%); Diarrhea (study drug-related AE) ([1]; 100 mg (n = 10)): 3 (8.3) number of subjects (%); Direct bilirubin increased (study drug-related AE) ([1]; 100 mg (n = 10)): 2 (5.6) number of subjects (%); Dizziness (study drug-related AE) ([1]; 100 mg (n = 10)): 4 (11.1) number of subjects (%); Headache (study drug-related AE) ([1]; 100 mg (n = 10)): 0 number of subjects (%); Loss of appetite (study drug-related AE) ([1]; 100 mg (n = 10)): 2 (5.6) number of subjects (%); Nausea (study drug-related AE) ([1]; 100 mg (n = 10)): 1 (2.8) number of subjects (%); Rash (study drug-related AE) ([1]; 100 mg (n = 10)): 0 number of subjects (%); Subcutaneous bleeding (double forearm) (study drug-related AE) ([1]; 100 mg (n = 10)): 0 number of subjects (%); Total bilirubin increased (study drug-related AE) ([1]; 100 mg (n = 10)): 0 number of subjects (%); Alkaline phosphatase increased (study drug-related AE) ([1]; 200 mg (n = 10)): 1 (2.8) number of subjects (%); Any AEs (study drug-related) ([1]; 200 mg (n = 10)): 10 (27.8) number of subjects (%); Bellyache (study drug-related AE) ([1]; 200 mg (n = 10)): 4 (11.1) number of subjects (%); Blood white cells increased (study drug-related AE) ([1]; 200 mg (n = 10)): 0 number of subjects (%); Diarrhea (study drug-related AE) ([1]; 200 mg (n = 10)): 9 (25) number of subjects (%); Direct bilirubin increased (study drug-related AE) ([1]; 200 mg (n = 10)): 1 (2.8) number of subjects (%); Dizziness (study drug-related AE) ([1]; 200 mg (n = 10)): 1 (2.8) number of subjects (%); Headache (study drug-related AE) ([1]; 200 mg (n = 10)): 0 number of subjects (%); Loss of appetite (study drug-related AE) ([1]; 200 mg (n = 10)): 0 number of subjects (%); Nausea (study drug-related AE) ([1]; 200 mg (n = 10)): 0 number of subjects (%); Rash (study drug-related AE) ([1]; 200 mg (n = 10)): 0 number of subjects (%); Subcutaneous bleeding (double forearm) (study drug-related AE) ([1]; 200 mg (n = 10)): 0 number of subjects (%); Total bilirubin increased (study drug-related AE) ([1]; 200 mg (n = 10)): 1 (2.8) number of subjects (%); Alkaline phosphatase increased (study drug-related AE) ([1]; 400 mg (n = 10)): 0 number of subjects (%); Any AEs (study drug-related) ([1]; 400 mg (n = 10)): 9 (25) number of subjects (%); Bellyache (study drug-related AE) ([1]; 400 mg (n = 10)): 1 (2.8) number of subjects (%); Blood white cells increased (study drug-related AE) ([1]; 400 mg (n = 10)): 0 number of subjects (%); Diarrhea (study drug-related AE) ([1]; 400 mg (n = 10)): 9 (25) number of subjects (%); Direct bilirubin increased (study drug-related AE) ([1]; 400 mg (n = 10)): 5 (13.9) number of subjects (%); Dizziness (study drug-related AE) ([1]; 400 mg (n = 10)): 0 number of subjects (%); Headache (study drug-related AE) ([1]; 400 mg (n = 10)): 0 number of subjects (%); Loss of appetite (study drug-related AE) ([1]; 400 mg (n = 10)): 0 number of subjects (%); Nausea (study drug-related AE) ([1]; 400 mg (n = 10)): 0 number of subjects (%); Rash (study drug-related AE) ([1]; 400 mg (n = 10)): 0 number of subjects (%); Subcutaneous bleeding (double forearm) (study drug-related AE) ([1]; 400 mg (n = 10)): 1 (2.8) number of subjects (%); Total bilirubin increased (study drug-related AE) ([1]; 400 mg (n = 10)): 3 (8.3) number of subjects (%); inhibition of CYP2C9 (CYP2C9): moderate inhibitor; substrate of CYP2C9 (CYP2C9): substrate; half-life ([2]; Female (n = 12)): 6.7 ± 1.2 h; Tmax ([2]; Female (n = 12)): 2.8 h; half-life ([2]; Male (n = 12)): 6.1 ± 1.1 h; Tmax ([2]; Male (n = 12)): 3.3 h; AUCinf/D, dose-normalized AUCinf ([2]; Female (n = 12)): 2016.33 ± 1124.90*; AUClast/D, dose-normalized AUClast ([2]; Female (n = 12)): 1984.33 ± 1809.10*; Cmax/D, dose-normalized Cmax ([2]; Female (n = 12)): 24.87 ± 8.23*; AUClast/D, dose-normalized AUClast ([2]; Male (n = 12)): 387.86 ± 174.14; Cmax/D, dose-normalized Cmax ([2]; Male (n = 12)): 16.44 ± 2.82
